Where two headings read alike, the source gives them in different places.
Experiments:
rat caudal artery = test: Rat caudal artery ring contractile force (vasoconstrictory activity); design: species or system rat (male Wistar)
Procedure: Male Wistar rats (150-250 g) were obtained from Charles River Italia (Milano, Italy) and killed by decapitation. Ventral caudal artery was isolated, placed in Tyrode solution at room temperature and cleaned of extraneous fatty and connective tissue under a dissection microscope. All vessels were cut into rings 2 mm long, mounted on a custom-built plexiglass support by means of two intraluminal tungsten wires and placed in 20 mL double-jacketed organ baths filled with Tyrode solution of the following composition (mM): NaCl 125, KCl 5, CaCl2 2.7, MgSO4 1, KH2PO4 1.2, NaHCO3 25 and glucose 11, maintained at 37° C., pH 7.35, bubbled with 95% O2 and […]. The endothelium was removed by gently rubbing the lumen of the rings with a very thin rough-surfaced tungsten wire (caudal artery). The mechanical activity of the rings was detected by means of an isometric force transducer (Ugo Basile, Comerio, Italy) coupled to a pen recorder (Ugo Basile, Comerio, Italy). Rings were passively stretched to impose a resting tension (2 g) and were allowed to equilibrate for 60 min. After equilibration, each ring was repeatedly simulated with both KCl (90 mM) and phenylephrine (10 μM) until reproducible responses were obtained. To verify the absence of the endothelium, rings contracted with 1 μM phenylephrine were exposed to […] carbamylcholine. […] Each compound was tested for the vasoconstrictor activity at a concentration of 50 μM, which has been previously reported to be the one evoking the maximal response to norbormide. The contractile responses to the compounds were expressed as percent of the 90 mM KCl response.

[1] = Simulated gastric fluid (SGF) hydrolytic stability assay; type: physicochemical; conditions: simulated gastric fluid without pepsin, pH 1.2, 37° C., 1 h, n = 3
Procedure: All in vivo candidates were subjected to a 1 h hydrolytic stability appraisal in the presence of SGF, without pepsin (United States Pharmacopoeia 24) [200 μL total volume, sodium chloride solution (0.03 M) acidified to pH 1.2 with concentrated hydrochloric acid, at a final compound concentration of 200 μM, 2.5% DMSO overall, 37° C., n=3], to investigate any potential chemical instabilities that may occur in the acidic environment of the stomach prior to uptake. Analysis was by RP-LCMS at an injection volume of 5 μL.

[2] = Rat serum assay (release of NRB or NRB analogue); type: in vitro ADME; conditions: 80% rat serum, 37° C., 3 h, n = 3
Procedure: The hydrolytic stability of compounds of the invention in rat blood was evaluated using in vitro rat serum obtained from Sigma-Aldrich and stored at −78° C. Similar assay conditions to those reported by Li Di and co-workers (Int. J. Pharm. 2005, 297, 110-119) were followed [200 μL total volume, 80% rat serum (diluting with phosphate buffer (0.1 M, pH 7.4)), at a final compound concentration of 200 μM, 2.5% DMSO overall, 37° C., 3 h, n=3] using an Eppendorf Thermomixer Compact. Reactions were quenched by transferring 150 μL of the incubation mixture to 450 μL of ice-cold acetonitrile, affording a final compound/NRB or NRB analogue concentration of 50 μM. Samples were centrifuged at 14,500×g for 15 min using an Eppendorf Mini Spin Plus centrifuge, at ambient temperature. 400 μL of the supernatant was removed and transferred to clean tubes. Analysis was by RP-LCMS at an injection volume of 20 μL. Each compound and corresponding NRB or NRB analogue were subjected to external calibration curves at 50 μM, 100 μM and 200 μM to allow conversion of absorbance unit area into nmol, from which the percentage of NRB or NRB analogue released from each compound was calculated.

Sprague Dawley rats = test: In vivo lethality, oral gavage; design: species or system rat (Sprague Dawley); conditions: rat, n = 2
Procedure: Sprague Dawley rats (150-200 g) were used to appraise the rodenticidal activity of the compounds put forward for in vivo evaluation. Briefly, prior to administration the compounds were dissolved in 0.2 M hydrochloric acid (5% DMSO overall), to the desired dose, and without delay either injected intravenously, via the tail, or orally gavaged. All treated animals were housed in a quiet room and monitored every minute (i.v) or every 15 min (oral) to verify early signs of toxicity.

[3] = Table 5, compounds of formula (III)
[4] = Table 3, read-out: Vasoconstriction: maximum contractile effect as a % of 90 mM KCl contraction

Row | Compound | Vasoconstriction: maximum contractile effect as a % of 90 mM KCl contraction (rat caudal artery; [3]) [%] | Vasoconstriction: maximum contractile effect as a % of 90 mM KCl contraction (rat caudal artery; n = 3, pre-cleavage, Table 6) [%] | % NRB released, Hydrolytic Stability [1] [%] | % NRB released, Rat Serum [2] [%] | Vasoconstriction: maximum contractile effect as a % of 90 mM KCl contraction (rat caudal artery; Table 4, pre-cleavage, n = 3) [%] | In vivo lethality (oral) (Sprague Dawley rats; 40 mg/Kg) | further results
1 | O=C(CCC(=O)OCN1C(=O)C2C3C=C(C(O)(c4ccccc4)c4ccccn4)C(C3=C(c3ccccc3)c3ccccn3)C2C1=O)OCN1C(=O)C2C3C=C(C(O)(c4ccccc4)c4ccccn4)C(C3=C(c3ccccc3)c3ccccn3)C2C1=O (stereo not drawn) [Compound 21, 5-(α-Hydroxy-α-2-pyridylbenzyl)-7-(α-2-pyridylbenzylidene)-N-succinoyloxymethyl-5-norbornene-2,3-dicarboximide dimer] | 0 | 0 | 0 | 29.6 ± 5.4 |  |  | 
2 | O=C(CCCCC(=O)OCN1C(=O)C2C3C=C(C(O)(c4ccccc4)c4ccccn4)C(C3=C(c3ccccc3)c3ccccn3)C2C1=O)OCN1C(=O)C2C3C=C(C(O)(c4ccccc4)c4ccccn4)C(C3=C(c3ccccc3)c3ccccn3)C2C1=O (stereo not drawn) [Compound 22, N-Adipoyloxymethyl-5-(α-hydroxy-α-2-pyridylbenzyl)-7-(α-2-pyridylbenzylidene)-5-norbornene-2,3-dicarboximide dimer] | 0 | 0 | 0 | 13.4 ± 0.2 |  |  | 
3 | O=C(CCCCCCC(=O)OCN1C(=O)C2C3C=C(C(O)(c4ccccc4)c4ccccn4)C(C3=C(c3ccccc3)c3ccccn3)C2C1=O)OCN1C(=O)C2C3C=C(C(O)(c4ccccc4)c4ccccn4)C(C3=C(c3ccccc3)c3ccccn3)C2C1=O (stereo not drawn) [Compound 23, 5-(α-Hydroxy-α-2-pyridylbenzyl)-7-(α-2-pyridylbenzylidene)-N-suberoyloxymethyl-5-norbornene-2,3-dicarboximide dimer] | 0 | 0 | 0 | 14.9 ± 5.0 |  |  | 
4 | O=C(CCCCCCCCCCC(=O)OCN1C(=O)C2C3C=C(C(O)(c4ccccc4)c4ccccn4)C(C3=C(c3ccccc3)c3ccccn3)C2C1=O)OCN1C(=O)C2C3C=C(C(O)(c4ccccc4)c4ccccn4)C(C3=C(c3ccccc3)c3ccccn3)C2C1=O (stereo not drawn) [Compound 25, N-Dodecanedioyloxymethyl-5-(α-hydroxy-α-2-pyridylbenzyl)-7-(α-2-pyridylbenzylidene)-5-norbornene-2,3-dicarboximide dimer] | 0 | 0 | 0 | <5 |  |  | 
5 | O=C(OCN1C(=O)C2C3C=C(C(O)(c4ccccc4)c4ccccn4)C(C3=C(c3ccccc3)c3ccccn3)C2C1=O)c1ccc(C(=O)OCN2C(=O)C3C4C=C(C(O)(c5ccccc5)c5ccccn5)C(C4=C(c4ccccc4)c4ccccn4)C3C2=O)cc1 (stereo not drawn) [Compound 26, 5-(α-Hydroxy-α-2-pyridylbenzyl)-7-(α-2-pyridylbenzylidene)-N-terephthaloyloxymethyl-5-norbornene-2,3-dicarboximide dimer] | 0 | 0 | 0 | <5 |  |  | 
6 | O=C(CCC(=O)OCN1C(=O)C2C3C=C(C(O)(c4ccccc4)c4ccccn4)C(C3=C(c3ccccc3)c3ccccn3)C2C1=O)OCCOC(=O)CCC(=O)OCN1C(=O)C2C3C=C(C(O)(c4ccccc4)c4ccccn4)C(C3=C(c3ccccc3)c3ccccn3)C2C1=O (stereo not drawn) [Compound 27, N-[α-(Ethylenebis(hydrogensuccinoyloxy))methyl]-5-(α-hydroxy-α-2-pyridylbenzyl)-7-(α-2-pyridylbenzylidene)-5-norbornene-2,3-dicarboximide dimer] | 0 | 0 | 0 | 20.8 ± 0.7 |  |  | 
7 | CC(=O)Nc1ccc(C=CC(=O)OCCN2C(=O)C3C4C=C(C(O)(c5ccccc5)c5ccccn5)C(C4=C(c4ccccc4)c4ccccn4)C3C2=O)cc1 (stereo not drawn) [Compound 337, N-[2′-(4″-Acetamidocinnamoyloxy)ethyl]-5-(α-hydroxy-α-2-pyridylbenzyl)-7-(α-2-pyridylbenzylidene)-5-norbornene-2,3-dicarboximide] |  |  |  |  | 97 | yes^h | Emax (rat caudal artery; Table 1, read-out: Vasoconstriction: maximum contractile effect as a % of 90 mM KCl contraction): 97%
8 | COC(=O)C(N)CC(=O)OCCN1C(=O)C2C3C=C(C(O)(c4ccccc4)c4ccccn4)C(C3=C(c3ccccc3)c3ccccn3)C2C1=O.O=C(O)C(F)(F)F (stereo not drawn) [Compound 343, 5-(α-Hydroxy-α-2-pyridylbenzyl)-N-[2′-(α-methylaspartoyloxy)ethyl]-7-(α-2-pyridylbenzylidene)-5-norbornene-2,3-dicarboximide trifluoroacetate] |  |  |  |  | 149 | yes^h,i | Vasoconstriction: maximum contractile effect as a % of 90 mM KCl contraction (rat caudal artery; Table 1, compound at 50 μM): 140%; In vivo lethality (oral) (Sprague Dawley rats; 20 mg/Kg): yes^h,i
9 | COc1ccc(C=CC(=O)NCCN2C(=O)C3C4C=C(C(O)(c5ccccc5)c5ccccn5)C(C4=C(c4ccccc4)c4ccccn4)C3C2=O)cc1 (stereo not drawn) [Compound 361, 5-(α-Hydroxy-α-2-pyridylbenzyl)-N-[2′-(4″-methoxycinnamamido)ethyl]-7-(α-2-pyridylbenzylidene)-5-norbornene-2,3-dicarboximide] |  |  |  |  | 21 | yes^h,i | Emax (rat caudal artery; Table 2, read-out: Vasoconstriction: maximum contractile effect as a % of 90 mM KCl contraction): 21%; In vivo lethality (oral) (Sprague Dawley rats; 20 mg/Kg): yes^h,i
10 | CCCCCCCC(=O)NCCN1C(=O)C2C3C=C(C(O)(c4ccccc4)c4ccccn4)C(C3=C(c3ccccc3)c3ccccn3)C2C1=O (stereo not drawn) [Compound 364, 5-(α-Hydroxy-α-2-pyridylbenzyl)-N-2′-octanamidoethyl-7-(α-2-pyridylbenzylidene)-5-norbornene-2,3-dicarboximide] |  |  |  |  | 21 | yes^h,i | Vasoconstriction: maximum contractile effect as a % of 90 mM KCl contraction (rat caudal artery; Table 2, compound at 50 μM): 21%; In vivo lethality (oral) (Sprague Dawley rats; 20 mg/Kg): yes^h,i
11 | CCCCCCCCOC(=O)CN1C(=O)C2C3C=C(C(O)(c4ccccc4)c4ccccn4)C(C3=C(c3ccccc3)c3ccccn3)C2C1=O (stereo not drawn) [Compound 369, 5-(α-Hydroxy-α-2-pyridylbenzyl)-N-octyloxycarbonylmethyl-7-(α-2-pyridylbenzylidene)-5-norbornene-2,3-dicarboximide] |  |  |  |  | 0 | no^h | Emax (rat caudal artery; [4]): 0%
12 | O=C(CN1C(=O)C2C3C=C(C(O)(c4ccccc4)c4ccccn4)C(C3=C(c3ccccc3)c3ccccn3)C2C1=O)OCC=Cc1ccccc1 (stereo not drawn) [Compound 371, N-Cinnamoxycarbonylmethyl-5-(α-hydroxy-α-2-pyridylbenzyl)-7-(α-2-pyridylbenzylidene)-5-norbornene-2,3-dicarboximide] |  |  |  |  | 0 | no^h | Emax (rat caudal artery; [4]): 0%

Reference: patent US9198420B2, “Rodenticidal norbormide analogues” (priority 2012, dated 2015)
